The source of these data is US8575094B2, “Use of type-B lantibiotic-based compounds having antimicrobial activity” (Novacta Biosystems Limited, priority 2007, dated 2013).

Each structure is given as a SMILES string. In brackets after ≈: the same amount, converted by molar mass. Read-outs that look alike come from different tables or passages of the source.

Series [1] is described as follows: Stability in Simulated Gastric Fluid (SGF), HPLC. The series is classed as in vitro ADME. Particulars: 37° C. The text has this:
(§1) The preferred method of dosage for the treatment of C. difficile infections is via the oral route of administration. […] Whilst the oral absorption of peptides and related substances of a molecular weight >1,000 Daltons is generally low, metabolism through peptidase enzymes is generally rapid and indeed forms an essential part of the normal digestion of food. The susceptibility of peptides towards enzymatic digestion in the stomach and intestine can reliably be estimated in vitro by measuring their stability in Simulated Gastric Fluid USP ([…], pepsin in saline, pH 1.2) and Simulated Intestinal Fluid USP (SIF, pancreatin in aqueous potassium dihydrogen phosphate, pH 6.8).
(§2) Nisin and mersacidin were tested for their susceptibility towards enzymatic digestion in the stomach and intestine. The SGF and SIF were based on the standard USP solutions for simulated gastric and simulated intestinal fluids and their activity confirmed against Bovine Serum Albumin (Hilger et al, 2001). The compounds were incubated in SGF or SIF at 37° C. and their concentrations quantified by analytical HPLC (UV detection at 210 nm). The potential degradation of each compound was also monitored qualitatively by measuring in vitro antibacterial activity against Micrococcus luteus.

A short description of series [2]: Stability in Simulated Intestinal Fluid (SIF), HPLC. The series is classed as in vitro ADME. The settings on record: 37° C.
From the text: as §1, §2

For series [3], the system named is C. difficile strain VPI 10463. Format: in vivo. Particulars: hamster, three times daily at 50 mg/kg/day, 5-day dosing period. The method, then: The in vivo efficacy of two type B Lantibiotics in the treatment of C. difficile infections was evaluated in the standard animal model for CDAD: clindamycin-induced cecitis in hamster (FIG. 3). Four groups of six animals were dosed orally with approximately 10^7 cells of C. difficile strain VPI 10463 and 24 hours later with a subcutaneous dose of 10 mg/kg clindamycin phosphate.

In a further series the test system is Clostridium difficile. The series can be described thus: microbe, parasite or virus in culture. The series is classed as cell-based. The settings on record: for MIC: Clostridioides difficile, read-out: Minimal Inhibitory Concentration (MIC). The text has this:
Compounds I to VII were screened against twelve clinical isolates of Clostridium difficile.
In addition, compounds L to LIII were screened against […] isolates of Clostridium difficile.

Series [4] deals with Bifidobacterium adolescentis NCTC 11814.
Series [5] deals with Bifidobacterium longum NCTC 11818.
Series [6] has as its system Bacteroides fragilis NCTC 9343.
The subject of series [7] is Bacteroides thetaiotaomicron NCTC 10582.
Another series deals with C. difficile 630. The settings on record: hamster, three times daily at 50 mg/kg/day for 5 days, groups of 6. The procedure:
The in vivo efficacy of compound VII in the treatment of C. difficile infections was evaluated in the clindamycin-induced cecitis model in hamster (FIG. 4). Groups of 6 animals were given a subcutaneous dose of 10 mg/kg clindamycin phosphate. 24 hours later, the animals received oral inocula of ˜10^4 spores of C. difficile 630, prepared by heating overnight BHI culture fluids to 56° C. for 10 min and recovering spores by centrifugation and re-suspension of the pellet in an equal volume of PBS.

For series [8] the following is noted: rat, 100 mg/kg oral.
Protocol: Male Sprague-Dawley rats were dosed with compound VII at 100 mg/kg via the oral route. Faeces and urine were collected over a 48 h period in two batches (24 h and 48 h post dose). Blood samples were taken at various time points for the first 24 h.
Another series has as its system Micrococcus luteus. The series can be described thus: In vitro antibacterial activity against Micrococcus luteus during SGF/SIF incubation. The series is classed as cell-based. Particulars: incubation in SGF or SIF at 37° C. The procedure: as §2
Another series concerns C. difficile spores. Nature of the series: Sporicidal activity: viable counts of C. difficile spores exposed to antibiotics. Particulars: for Viable counts of C. difficile spores: antibiotic at 100 µg/ml. Format: cell-based. From the text:
An agent capable of killing, or preventing the successful germination of C. difficile spores would therefore be of considerable interest. To determine the effects of type B lantibiotics on C. difficile spores, suspensions of spores were exposed to antibiotics ([…]) and aliquots were taken at appropriate time points. The spores in each aliquot were filtered off and plated out on to Brazier's agar.

In the case of `CC[C@H](C)[C@@H]1NC(=O)[C@H](C(C)C)NC(=O)[C@@H]2NC(=O)CNC(=O)[C@@H]3CS[C@@H](C)[C@@H](NC(=O)[C@@H]4CSC[C@@H](N)C(=O)N[C@@H](CO)C(=O)NCC(=O)N[C@@H](Cc5c[nH]c6ccccc56)C(=O)N[C@@H](C(C)C)C(=O)N4)C(=O)N[C@@H](CC(C)C)C(=O)N[C@@H](C(=O)N[C@@H]([C@@H](C)CC)C(=O)N[C@@H](CCC(=O)O)C(=O)N3)[C@H](C)SC[C@H](NC1=O)C(=O)N[C@@H](C)C(=O)N[C@H](C(=O)NCCO)C[S+]([O-])[C@H]2C` (stereo partly shown) [Compound VI, Actagardine N-[2-ethanolamine] monocarboxamide], the “Stability (degradation) in Simulated Gastric Fluid” value in series [1] is given as “None of the compounds showed appreciable degradation”. Further, in [2], the “Stability (degradation) in Simulated Intestinal Fluid” value is given as “essentially stable”. Moreover, the “Survival of infected animals” value in series [3] was “survived for the duration of the entire 5-day dosing period”.
For `C=C1NC(=O)[C@@H]2NC(=O)[C@H](CC(C)C)NC(=O)[C@H](NC(=O)[C@@H]3CS[C@@H](C)[C@@H](NC(=O)[C@H](Cc4c[nH]c5ccccc45)NC(=O)[C@@H]4NC(=O)[C@@H](N)CS[C@H]4C)C(=O)N[C@@H](CC(C)C)C(=O)N4CCC[C@H]4C(=O)NCC(=O)NCC(=O)NCC(=O)NCC(=O)N[C@@H](C(C)C)C(=O)N3)[C@H](C)SC[C@H](NC(=O)[C@H](CCC(=O)O)NC1=O)C(=O)N[C@@H](C(C)CC)C(=O)N/C=C\S[C@H]2C` (stereo partly shown) [Compound IV, F3W Mersacidin], the “Minimal Inhibitory Concentration (MIC)” value was 2 µg/mL in the series on Clostridium difficile; above 64 µg/mL in the series on E. coli; 32 µg/mL in the series on E. faecium; 32 µg/mL in [4]; 16 µg/mL in [5]; 32 µg/mL in [6]. The “Minimal Inhibitory Concentration (MIC)” value in series [7] worked out at 16 µg/mL. The “Survival of infected animals” value in series [3] is “survived for the duration of the entire 5-day dosing period”.
For the compound `CC[C@H](C)[C@@H]1NC(=O)[C@@H]2NC(=O)[C@H](CC(C)C)NC(=O)[C@H](NC(=O)[C@@H]3CSC[C@@H](N)C(=O)N[C@@H](CO)C(=O)NCC(=O)N[C@@H](Cc4c[nH]c5ccccc45)C(=O)N[C@@H](C(C)C)C(=O)N3)[C@H](C)SC[C@H](NC(=O)[C@H](CCC(=O)O)NC1=O)C(=O)NCC(=O)N[C@H]1C(=O)N[C@@H](CC(C)C)C(=O)N[C@@H](C(C)C)C(=O)N[C@@H](CS[C@H]2C)C(=O)N[C@@H](C)C(=O)N[C@H](C(=O)NCCO)CS[C@H]1C` [Compound VII, Deoxy-actagardine B N-[2-ethanolamine] monocarboxamide], the “Stability (degradation) in Simulated Gastric Fluid” value in series [1] is recorded as “None of the compounds showed appreciable degradation”. The “Survival of infected animals” value with C. difficile 630 is given as “all 6 of the infected mice survived”. Further, in [8], the “Material recovered from plasma” value is “No material was recovered”. Also, the “Material recovered from urine” value in series [8] (urine collected over 48 h) is reported as “No material was recovered”.
`C=C1NC(=O)[C@@H]2NC(=O)[C@H](CC(C)C)NC(=O)[C@H](NC(=O)[C@@H]3CS[C@@H](C)[C@@H](NC(=O)[C@H](Cc4ccccc4)NC(=O)[C@@H]4NC(=O)[C@@H](N)CS[C@H]4C)C(=O)N[C@@H](CC(C)C)C(=O)N4CCC[C@H]4C(=O)NCC(=O)NCC(=O)NCC(=O)NCC(=O)N[C@@H](C(C)C)C(=O)N3)[C@H](C)SC[C@H](NC(=O)[C@H](CCC(=O)O)NC1=O)C(=O)N[C@@H]([C@@H](C)CC)C(=O)N/C=C\S[C@H]2C` [Compound I, Mersacidin]: the “Stability (degradation) in Simulated Gastric Fluid” value in [1] is “None of the compounds showed appreciable degradation”. The “Stability (degradation) in Simulated Intestinal Fluid” value in [2] is recorded as “essentially stable”. Further, in the series on Micrococcus luteus, the “In vitro activity against M. luteus during the course of the experiment” value is “remained unaltered”. Further, the “Effect on C. difficile spore viability / germination” value in the series on C. difficile spores is recorded as “inactivate or prevent C. difficile spores from germinating”. Also, the “Viable counts of C. difficile spores” value was 177 with C. difficile spores (time 0 h), 0 in the series on C. difficile spores (time 4 h), 0 in the series with C. difficile spores (time 8 h) and 0 with C. difficile spores (time 24 h).
Regarding `Cc1ncc([N+](=O)[O-])n1CCO` [Metronidazole], the MIC in the series with Clostridium difficile (C. difficile strain 027C) came to 0.25 µg/mL (≈ 1.46 µM); in the series with Clostridium difficile (C. difficile strain 27SM), 0.125 µg/mL (≈ 0.73 µM); in the series with Clostridium difficile (C. difficile strain 19126), 0.25 µg/mL (≈ 1.46 µM); in the series with Clostridium difficile (C. difficile strain 37779), 0.125 µg/mL (≈ 0.73 µM); with Clostridium difficile (C. difficile strain B32), 0.125 µg/mL (≈ 0.73 µM); with Clostridium difficile (C. difficile strain E4), 0.25 µg/mL (≈ 1.46 µM). The MIC in the series with Clostridium difficile (C. difficile strain E16) is 8 µg/mL (≈ 46.7 µM); with Clostridium difficile (C. difficile strain E101), 0.125 µg/mL (≈ 0.73 µM); with Clostridium difficile (C. difficile strain P24) it was 0.25 µg/mL (≈ 1.46 µM); with Clostridium difficile (C. difficile strain P49) it was 0.125 µg/mL (≈ 0.73 µM); in the series with Clostridium difficile (C. difficile strain P59), 0.25 µg/mL (≈ 1.46 µM); in the series with Clostridium difficile (C. difficile strain P62), 0.25 µg/mL (≈ 1.46 µM). Moreover, the “Effect on C. difficile spore viability / germination” value in the series on C. difficile spores is “no significant effect on spore viability”. The “Viable counts of C. difficile spores” value in the series on C. difficile spores (time 0 h) was found to be 177; in the series with C. difficile spores (time 4 h), 154; in the series on C. difficile spores (time 8 h) it was 144; with C. difficile spores (time 24 h) it was 120.
